Experimental data reported in publication PMC8222254, “Self-assembly of an anion receptor with metal-dependent kinase inhibition and potent in vitro anti-cancer properties” (Nature Communications, 2021).
Several values for one entry are separate records, joined by “and”; a condition that tells them apart may be missing. Identical values can stand only once.

What was measured:
Test in all cases: Kinase inhibition screen, cell-free 33P ATP assay at 10 μM
Format in all cases: biochemical
[1] = target: T1, 140 purified human kinases (Homo sapiens, UniProt P54762)
T1 sequence (P54762 18-984): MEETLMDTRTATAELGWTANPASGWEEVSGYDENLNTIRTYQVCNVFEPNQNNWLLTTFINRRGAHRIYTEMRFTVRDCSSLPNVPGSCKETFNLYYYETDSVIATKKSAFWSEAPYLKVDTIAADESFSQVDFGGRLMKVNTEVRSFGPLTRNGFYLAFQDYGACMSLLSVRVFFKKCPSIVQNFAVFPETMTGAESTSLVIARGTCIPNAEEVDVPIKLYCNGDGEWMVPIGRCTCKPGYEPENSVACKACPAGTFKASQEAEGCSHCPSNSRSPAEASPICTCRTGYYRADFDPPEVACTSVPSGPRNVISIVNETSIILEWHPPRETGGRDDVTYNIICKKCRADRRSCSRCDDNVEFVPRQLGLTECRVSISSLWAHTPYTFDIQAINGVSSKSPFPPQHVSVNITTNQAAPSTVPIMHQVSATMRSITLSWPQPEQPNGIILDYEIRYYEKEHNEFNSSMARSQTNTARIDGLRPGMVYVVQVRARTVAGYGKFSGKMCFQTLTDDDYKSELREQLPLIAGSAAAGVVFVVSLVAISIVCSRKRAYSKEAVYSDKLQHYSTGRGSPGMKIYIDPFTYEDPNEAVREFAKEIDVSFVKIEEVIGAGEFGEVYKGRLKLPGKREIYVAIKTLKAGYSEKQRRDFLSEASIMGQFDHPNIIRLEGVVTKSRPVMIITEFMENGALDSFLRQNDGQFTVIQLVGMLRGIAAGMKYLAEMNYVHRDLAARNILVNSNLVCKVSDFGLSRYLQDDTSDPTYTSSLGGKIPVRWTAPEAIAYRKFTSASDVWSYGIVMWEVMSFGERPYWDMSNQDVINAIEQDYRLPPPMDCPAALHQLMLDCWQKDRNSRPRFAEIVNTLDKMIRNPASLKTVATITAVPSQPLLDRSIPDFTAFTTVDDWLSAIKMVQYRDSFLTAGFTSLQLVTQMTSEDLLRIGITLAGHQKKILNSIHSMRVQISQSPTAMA
Procedure: (§1) [L2Cu3]^6+ and [L2Zn3]^6+ were submitted to the MRC Protein Phosphorylation and Ubiquitination Unit International Centre for Kinase Profiling (University of Dundee) and tested in duplicate (at 10 μM) against a series of 140 purified human kinases in a cell-free kinase assay using ^33P ATP[55],[56]. The kinase gene IDs from the screen were then translated into common IDs (HGNC symbol) using biomaRt package[57],[58] in R[59] and R Studio[60] and used as input to the KinMap programme.

[2] = target: T2, 140 purified human kinases (Homo sapiens, UniProt Q13188)
T2 sequence (Q13188 1-491): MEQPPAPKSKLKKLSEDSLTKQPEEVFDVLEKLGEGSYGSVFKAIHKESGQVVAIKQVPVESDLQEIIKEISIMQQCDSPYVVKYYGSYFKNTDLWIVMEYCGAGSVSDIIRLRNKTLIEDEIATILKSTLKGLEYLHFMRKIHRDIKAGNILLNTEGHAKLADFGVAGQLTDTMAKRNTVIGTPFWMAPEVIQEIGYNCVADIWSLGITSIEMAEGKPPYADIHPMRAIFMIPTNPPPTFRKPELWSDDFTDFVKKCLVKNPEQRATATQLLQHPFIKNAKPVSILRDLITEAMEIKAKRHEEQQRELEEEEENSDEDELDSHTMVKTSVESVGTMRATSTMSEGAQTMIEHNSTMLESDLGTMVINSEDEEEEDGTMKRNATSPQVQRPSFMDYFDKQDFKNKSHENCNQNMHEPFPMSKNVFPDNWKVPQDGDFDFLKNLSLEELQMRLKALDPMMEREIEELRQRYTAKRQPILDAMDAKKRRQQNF
Procedure: as §1

[3] = target: 140 purified human kinases (Homo sapiens, UniProt P48730); details: CK1δ; for % Activity Run 1 / % Activity Run 2: 10 µM
Procedure: as §1

[4] = target: T3, 140 purified human kinases (Homo sapiens, UniProt O14757)
T3 sequence (O14757 1-476): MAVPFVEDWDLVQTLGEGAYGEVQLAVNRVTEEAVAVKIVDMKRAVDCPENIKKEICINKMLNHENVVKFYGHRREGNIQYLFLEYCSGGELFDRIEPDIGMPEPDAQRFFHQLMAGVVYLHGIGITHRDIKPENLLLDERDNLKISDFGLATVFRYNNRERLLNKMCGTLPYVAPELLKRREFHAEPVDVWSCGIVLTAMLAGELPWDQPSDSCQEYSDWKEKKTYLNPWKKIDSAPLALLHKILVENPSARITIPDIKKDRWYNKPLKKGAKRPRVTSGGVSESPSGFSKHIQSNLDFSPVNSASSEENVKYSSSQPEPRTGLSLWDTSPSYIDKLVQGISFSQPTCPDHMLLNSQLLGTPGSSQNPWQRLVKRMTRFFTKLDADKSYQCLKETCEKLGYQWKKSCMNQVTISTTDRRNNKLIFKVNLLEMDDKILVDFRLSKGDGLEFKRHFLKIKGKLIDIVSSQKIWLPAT
Procedure: as §1

[5] = target: T4, 140 purified human kinases (Homo sapiens, UniProt P52564)
T4 sequence (P52564 1-334): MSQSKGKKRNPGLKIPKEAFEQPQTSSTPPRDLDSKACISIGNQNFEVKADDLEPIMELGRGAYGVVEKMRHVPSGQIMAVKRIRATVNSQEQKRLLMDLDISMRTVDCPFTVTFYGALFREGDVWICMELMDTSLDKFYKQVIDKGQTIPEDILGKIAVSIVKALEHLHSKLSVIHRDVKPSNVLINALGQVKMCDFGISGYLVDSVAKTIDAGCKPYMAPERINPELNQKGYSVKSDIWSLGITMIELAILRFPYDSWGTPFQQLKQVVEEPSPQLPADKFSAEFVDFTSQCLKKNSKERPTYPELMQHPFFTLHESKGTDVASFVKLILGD
Procedure: as §1

140 purified human kinases (Homo sapiens, UniProt P48730), sequence (P48730 whole entry): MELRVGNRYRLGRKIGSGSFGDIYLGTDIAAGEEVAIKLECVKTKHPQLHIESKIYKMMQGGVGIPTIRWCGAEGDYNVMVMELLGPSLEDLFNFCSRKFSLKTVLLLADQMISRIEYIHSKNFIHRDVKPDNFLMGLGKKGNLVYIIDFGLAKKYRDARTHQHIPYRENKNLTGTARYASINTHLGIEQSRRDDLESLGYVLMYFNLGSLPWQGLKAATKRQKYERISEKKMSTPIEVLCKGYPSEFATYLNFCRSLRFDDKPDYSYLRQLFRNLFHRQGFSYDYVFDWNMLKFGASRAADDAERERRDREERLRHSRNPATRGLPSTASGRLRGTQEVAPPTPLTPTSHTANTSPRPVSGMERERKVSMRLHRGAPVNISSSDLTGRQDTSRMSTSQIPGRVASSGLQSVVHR

With `[Cu+2].[Cu+2].[Cu+2].c1ccc(-c2csc(NCCN(CCNc3nc(-c4ccccn4)cs3)CCNc3nc(-c4ccccn4)cs3)n2)nc1.c1ccc(-c2csc(NCCN(CCNc3nc(-c4ccccn4)cs3)CCNc3nc(-c4ccccn4)cs3)n2)nc1` [[L2Cu3]6+] the “% Activation, Mean value” ([1]; EPH-B1) was 14%, the “% Inhibition Run 1” value ([1]; EPH-B1) was -9.9% and the “% Inhibition Run 2” value ([1]; EPH-B1) was -17.3%. For the same compound, the “% Inhibition, Mean” value ([1]; EPH-B1) was -14%, the mean % activity ([1]; EPH-B1) was 114% and the “% activity” value ([1]; EPH-B1, Run 1) was 109.9%. For the same compound, the “% activity” value ([1]; EPH-B1, Run 2) was 117.3%, the “% Activity Run 1” value ([1]; EPH-B1, 10 µM) was 109.90% and the “% Activity Run 2” value ([1]; EPH-B1, 10 µM) was 117.30%. For the same compound, the “% Inhibition Run 1” value ([2]; MST2) was 38.8%, the “% Inhibition Run 2” value ([2]; MST2) was 41.9% and the “% Inhibition, Mean” value ([2]; MST2) was 40%. For the same compound, the mean % activity ([2]; MST2) was 60%, the “% activity” value ([2]; MST2, Run 1) was 61.2% and the “% activity” value ([2]; MST2, Run 2) was 58.1%. For the same compound, the “% Activation, Mean value” [3] was 12%, the “% Inhibition Run 1” value [3] was -26.4% and the “% Inhibition Run 2” value [3] was 2.3%. For the same compound, the “% Inhibition, Mean” value [3] was -12%, the mean % activity [3] was 112% and the “% activity” value ([3]; Run 1) was 126.4%. The “% activity” value ([3]; Run 2) was 97.7%, the “% Activity Run 1” value [3] was 126.40% and the “% Activity Run 2” value [3] was 97.70%. The “% Inhibition Run 1” value ([4]; CHK1) was 45.6%, the “% Inhibition Run 2” value ([4]; CHK1) was 41.5% and the “% Inhibition, Mean” value ([4]; CHK1) was 44%. The mean % activity ([4]; CHK1) was 56%, the “% activity” value ([4]; CHK1, Run 1) was 54.4% and the “% activity” value ([4]; CHK1, Run 2) was 58.5%. The “% Inhibition Run 1” value ([5]; MKK6) was 75.4%, the “% Inhibition Run 2” value ([5]; MKK6) was 83.7% and the “% Inhibition, Mean” value ([5]; MKK6) was 80%. The mean % activity ([5]; MKK6) was 20%, the “% activity” value ([5]; MKK6, Run 1) was 24.6% and the “% activity” value ([5]; MKK6, Run 2) was 16.3%.
`CC(=O)[O-].CC(=O)[O-].CC(=O)[O-].CC(=O)[O-].CC(=O)[O-].CC(=O)[O-].[Zn+2].[Zn+2].[Zn+2].c1ccc(-c2csc(NCCN(CCNc3nc(-c4ccccn4)cs3)CCNc3nc(-c4ccccn4)cs3)n2)nc1.c1ccc(-c2csc(NCCN(CCNc3nc(-c4ccccn4)cs3)CCNc3nc(-c4ccccn4)cs3)n2)nc1` [[L2Zn3]6+] was tested, and the “% Inhibition, Mean” value ([1]; EPH-B1) was -0.2%, the “% Inhibition, Run 1 / Run 2” value ([1]; EPH-B1) was 4% and -4.6% and the mean % activity ([1]; EPH-B1) was 100%. The “% activity” value ([1]; EPH-B1, duplicate runs) was 96% and 105%, the “% Inhibition, Mean” value ([2]; MST2) was 10% and the “% Inhibition, Run 1 / Run 2” value ([2]; MST2) was 14% and 6%. The mean % activity ([2]; MST2) was 90%, the “% activity” value ([2]; MST2, duplicate runs) was 86% and 94% and the “% Activation, Mean value” [3] was 19%. The “% Inhibition, Mean” value [3] was -19%, the mean % activity [3] was 119% and the “% Activity Run 1” value [3] was 131.0%. For the same compound, the “% Activity Run 2” value [3] was 107.0%, the “% activity” value ([3]; duplicate runs) was 131% and 107% and the “% Inhibition, Mean” value ([4]; CHK1) was 17%. For the same compound, the “% Inhibition, Run 1 / Run 2” value ([4]; CHK1) was 18% and 16%, the mean % activity ([4]; CHK1) was 83% and the “% activity” value ([4]; CHK1, duplicate runs) was 82% and 84%. The “% Inhibition, Mean” value ([5]; MKK6) was 48%, the “% Inhibition, Run 1 / Run 2” value ([5]; MKK6) was 59% and 37% and the mean % activity ([5]; MKK6) was 52%. The “% activity” value ([5]; MKK6, duplicate runs) was 41% and 63%.
